{
  "source": "patent US10399987B2",
  "about": "“TGF beta receptor antagonists” (BRISTOL-MYERS SQUIBB COMPANY, priority 2015, dated 2019)",
  "molecular_target": "HIS-TGFβR1 T204D (Homo sapiens (Human), UniProt P36897, T204D)",
  "sequence (P36897 34-503 T204D)": "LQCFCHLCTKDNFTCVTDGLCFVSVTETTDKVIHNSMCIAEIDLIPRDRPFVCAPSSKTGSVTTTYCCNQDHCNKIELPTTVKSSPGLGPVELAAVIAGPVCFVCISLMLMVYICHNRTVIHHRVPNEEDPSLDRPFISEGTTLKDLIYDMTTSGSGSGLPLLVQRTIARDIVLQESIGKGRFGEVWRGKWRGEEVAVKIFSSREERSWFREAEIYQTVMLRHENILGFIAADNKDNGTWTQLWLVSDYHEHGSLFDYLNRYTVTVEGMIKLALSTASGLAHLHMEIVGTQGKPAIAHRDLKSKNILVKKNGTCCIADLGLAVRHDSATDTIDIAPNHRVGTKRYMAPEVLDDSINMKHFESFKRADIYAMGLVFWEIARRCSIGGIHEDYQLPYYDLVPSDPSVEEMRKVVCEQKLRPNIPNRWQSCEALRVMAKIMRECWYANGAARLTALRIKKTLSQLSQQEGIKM",
  "assay": "TGFβR1 HIS T204D HTRF assay (labeled small molecule probe, anti-HIS detection antibody)",
  "type": "binding",
  "details": "1 nM HIS-TGFβR1 T204D, probe at Kd, 1 hour at room temperature, eleven concentrations",
  "data": [
    {"smiles": "Fc1cnccc1Nc1nc(-c2cccc(C(F)F)n2)nc2[nH]ccc12", "note": "[Example 2, 2-(6-(difluoromethyl)pyridin-2-yl)-N-(3-fluoropyridin-4-yl)-7H-pyrrolo[2,3-d]pyrimidin-4-amine]", "values": [
      {"measurement": "IC50", "value": 0.25, "unit": "nM"}
    ]},
    {"smiles": "CC(=O)Nc1cc(Nc2nc(-c3cccc(C(F)F)n3)nc3[nH]ccc23)ccn1", "note": "[Example 3, N-(4-((2-(6-(difluoromethyl)pyridin-2-yl)-7H-pyrrolo[2,3-d]pyrimidin-4-yl)amino)pyridin-2-yl)acetamide]", "values": [
      {"measurement": "IC50", "value": 0.78, "unit": "nM"}
    ]},
    {"smiles": "O=C(CN1CCCC1)Nc1cc(Nc2nc(-c3cccc(C(F)(F)F)n3)nc3[nH]ccc23)ccn1", "note": "[Example 4, 2-(pyrrolidin-1-yl)-N-(4-((2-(6-(trifluoromethyl)pyridin-2-yl)-7H-pyrrolo[2,3-d]pyrimidin-4-yl)amino)pyridin-2-yl)acetamide]", "values": [
      {"measurement": "IC50", "value": 0.42, "unit": "nM"}
    ]},
    {"smiles": "CN1CCN(CC(=O)Nc2cc(Nc3nc(-c4cccc(C(F)(F)F)n4)nc4[nH]ccc34)ccn2)CC1", "note": "[Example 5, 2-(4-methylpiperazin-1-yl)-N-(4-((2-(6-(trifluoromethyl)pyridin-2-yl)-7H-pyrrolo[2,3-d]pyrimidin-4-yl)amino)pyridin-2-yl)acetamide]", "values": [
      {"measurement": "IC50", "value": 0.53, "unit": "nM"}
    ]},
    {"smiles": "Cc1c[nH]c2nc(-c3cccc(C(F)F)n3)nc(Nc3ccncc3F)c12", "note": "[Example 6, 2-(6-(difluoromethyl)pyridin-2-yl)-N-(3-fluoropyridin-4-yl)-5-methyl-7H-pyrrolo[2,3-d]pyrimidin-4-amine]", "values": [
      {"measurement": "IC50", "value": 0.76, "unit": "nM"}
    ]},
    {"smiles": "CN1CCN(Cc2c[nH]c3nc(-c4cccc(C(F)F)n4)nc(Nc4ccncc4F)c23)CC1", "note": "[Example 7, 2-(6-(difluoromethyl)pyridin-2-yl)-N-(3-fluoropyridin-4-yl)-5-((4-methylpiperazin-1-yl)methyl)-7H-pyrrolo[2,3-d]pyrimidin-4-amine]", "values": [
      {"measurement": "IC50", "value": 3.7, "unit": "nM"}
    ]},
    {"smiles": "Fc1cnccc1Nc1nc(-c2ccccn2)nc2[nH]ccc12", "note": "[Example 8, N-(3-fluoropyridin-4-yl)-2-(pyridin-2-yl)-7H-pyrrolo[2,3-d]pyrimidin-4-amine]", "values": [
      {"measurement": "IC50", "value": 0.26, "unit": "nM"}
    ]},
    {"smiles": "c1ccc(-c2nc(-n3ccc4cnccc43)c3cc[nH]c3n2)nc1", "note": "[Example 9, 2-(pyridin-2-yl)-4-(1H-pyrrolo[3,2-c]pyridin-1-yl)-7H-pyrrolo[2,3-d]pyrimidine]", "values": [
      {"measurement": "IC50", "value": 1.2, "unit": "nM"}
    ]},
    {"smiles": "Cc1nc(-c2nc(Nc3ccncc3F)c3cc[nH]c3n2)ccc1F", "note": "[Example 11, 2-(5-fluoro-6-methylpyridin-2-yl)-N-(3-fluoropyridin-4-yl)-7H-pyrrolo[2,3-d]pyrimidin-4-amine]", "values": [
      {"measurement": "IC50", "value": 0.6, "unit": "nM"}
    ]},
    {"smiles": "FC(F)c1cccc(-c2nc(-n3ccc4cnccc43)c3cc[nH]c3n2)n1", "note": "[Example 12, 2-(6-(difluoromethyl)pyridin-2-yl)-4-(1H-pyrrolo[3,2-c]pyridin-1-yl)-7H-pyrrolo[2,3-d]pyrimidine]", "values": [
      {"measurement": "IC50", "value": 0.64, "unit": "nM"}
    ]},
    {"smiles": "Cc1nc(-c2nc(Nc3cc(Cl)ncc3F)c3cc[nH]c3n2)ccc1F", "note": "[Example 13, N-(2-chloro-5-fluoropyridin-4-yl)-2-(5-fluoro-6-methylpyridin-2-yl)-7H-pyrrolo[2,3-d]pyrimidin-4-amine]", "values": [
      {"measurement": "IC50", "value": 4, "unit": "nM"}
    ]},
    {"smiles": "Fc1ccc(-c2nc(Nc3ccncc3F)c3cc[nH]c3n2)nc1", "note": "[Example 14, 2-(5-fluoropyridin-2-yl)-N-(3-fluoropyridin-4-yl)-7H-pyrrolo[2,3-d]pyrimidin-4-amine]", "values": [
      {"measurement": "IC50", "value": 0.91, "unit": "nM"}
    ]},
    {"smiles": "FC(F)c1cccc(-c2nc(Nc3ccnc(Cl)n3)c3cc[nH]c3n2)n1", "note": "[Example 15, N-(2-chloropyrimidin-4-yl)-2-(6-(difluoromethyl)pyridin-2-yl)-7H-pyrrolo[2,3-d]pyrimidin-4-amine]", "values": [
      {"measurement": "IC50", "value": 160, "unit": "nM"}
    ]},
    {"smiles": "CC(=O)Nc1cc(Nc2nc(-c3cccc(C(F)F)n3)nc3[nH]ccc23)c(F)cn1", "note": "[Example 16, N-(4-((2-(6-(difluoromethyl)pyridin-2-yl)-7H-pyrrolo[2,3-d]pyrimidin-4-yl)amino)-5-fluoropyridin-2-yl)acetamide]", "values": [
      {"measurement": "IC50", "value": 0.71, "unit": "nM"}
    ]},
    {"smiles": "COC(=O)Nc1cc(Nc2nc(-c3cccc(C(F)F)n3)nc3[nH]ccc23)ccn1", "note": "[Example 17, methyl (4-((2-(6-(difluoromethyl)pyridin-2-yl)-7H-pyrrolo[2,3-d]pyrimidin-4-yl)amino)pyridin-2-yl)carbamate]", "values": [
      {"measurement": "IC50", "value": 0.76, "unit": "nM"}
    ]},
    {"smiles": "CC(=O)Nc1cc(Nc2nc(-c3ccc(F)c(C)n3)nc3[nH]ccc23)c(F)cn1", "note": "[Example 18, N-(5-fluoro-4-((2-(5-fluoro-6-methylpyridin-2-yl)-7H-pyrrolo[2,3-d]pyrimidin-4-yl)amino)pyridin-2-yl)acetamide]", "values": [
      {"measurement": "IC50", "value": 1.3, "unit": "nM"}
    ]},
    {"smiles": "O=C1CCCN1c1cc(Nc2nc(-c3cccc(C(F)F)n3)nc3[nH]ccc23)ccn1", "note": "[Example 19, 1-(4-((2-(6-(difluoromethyl)pyridin-2-yl)-7H-pyrrolo[2,3-d]pyrimidin-4-yl)amino)pyridin-2-yl)pyrrolidin-2-one]", "values": [
      {"measurement": "IC50", "value": 5.8, "unit": "nM"}
    ]},
    {"smiles": "CC(=O)Nc1cc(Nc2nc(-c3ccccn3)nc3[nH]ccc23)ccn1", "note": "[Example 21, N-(4-((2-(pyridin-2-yl)-7H-pyrrolo[2,3-d]pyrimidin-4-yl)amino)pyridin-2-yl)acetamide]", "values": [
      {"measurement": "IC50", "value": 0.9, "unit": "nM"}
    ]},
    {"smiles": "CC(=O)Nc1cc(Nc2nc(-c3cccc(C)n3)nc3[nH]ccc23)ccn1", "note": "[Example 22, N-(4-((2-(6-methylpyridin-2-yl)-7H-pyrrolo[2,3-d]pyrimidin-4-yl)amino)pyridin-2-yl)acetamide]", "values": [
      {"measurement": "IC50", "value": 1, "unit": "nM"}
    ]},
    {"smiles": "CC(=O)Nc1cc(Nc2nc(-c3ccc(C(F)(F)F)cn3)nc3[nH]ccc23)ccn1", "note": "[Example 23, N-(4-((2-(5-(trifluoromethyl)pyridin-2-yl)-7H-pyrrolo[2,3-d]pyrimidin-4-yl)amino)pyridin-2-yl)acetamide]", "values": [
      {"measurement": "IC50", "value": 4.7, "unit": "nM"}
    ]},
    {"smiles": "CCC(=O)Nc1cc(Nc2nc(-c3cccc(C(F)(F)F)n3)nc3[nH]ccc23)ccn1", "note": "[Example 24, N-(4-((2-(6-(trifluoromethyl)pyridin-2-yl)-7H-pyrrolo[2,3-d]pyrimidin-4-yl)amino)pyridin-2-yl)propionamide]", "values": [
      {"measurement": "IC50", "value": 0.74, "unit": "nM"}
    ]},
    {"smiles": "CC(=O)Nc1cc(Nc2nc(-c3cccc(C(F)F)n3)nc3[nH]cc(C)c23)ccn1", "note": "[Example 25, N-(4-((2-(6-(difluoromethyl)pyridin-2-yl)-5-methyl-7H-pyrrolo[2,3-d]pyrimidin-4-yl)amino)pyridin-2-yl)acetamide]", "values": [
      {"measurement": "IC50", "value": 1.5, "unit": "nM"}
    ]},
    {"smiles": "CC(C)(C)CC(=O)Nc1cc(Nc2nc(-c3cccc(C(F)(F)F)n3)nc3[nH]ccc23)ccn1", "note": "[Example 26, 3,3-dimethyl-N-(4-((2-(6-(trifluoromethyl)pyridin-2-yl)-7H-pyrrolo[2,3-d]pyrimidin-4-yl)amino)pyridin-2-yl)butanamide]", "values": [
      {"measurement": "IC50", "value": 2.7, "unit": "nM"}
    ]},
    {"smiles": "CC(C)CC(=O)Nc1cc(Nc2nc(-c3cccc(C(F)(F)F)n3)nc3[nH]ccc23)ccn1", "note": "[Example 27, 3-methyl-N-(4-((2-(6-(trifluoromethyl)pyridin-2-yl)-7H-pyrrolo[2,3-d]pyrimidin-4-yl)amino)pyridin-2-yl)butanamide]", "values": [
      {"measurement": "IC50", "value": 0.85, "unit": "nM"}
    ]},
    {"smiles": "CS(=O)(=O)Nc1cc(Nc2nc(-c3cccc(C(F)(F)F)n3)nc3[nH]ccc23)ccn1", "note": "[Example 28, N-(4-((2-(6-(trifluoromethyl)pyridin-2-yl)-7H-pyrrolo[2,3-d]pyrimidin-4-yl)amino)pyridin-2-yl)methanesulfonamide]", "values": [
      {"measurement": "IC50", "value": 970, "unit": "nM"}
    ]},
    {"smiles": "CC(=O)Nc1cc(Nc2nc(-c3ccc(F)c(C)n3)nc3[nH]ccc23)ccn1", "note": "[Example 29, N-(4-((2-(5-fluoro-6-methylpyridin-2-yl)-7H-pyrrolo[2,3-d]pyrimidin-4-yl)amino)pyridin-2-yl)acetamide]", "values": [
      {"measurement": "IC50", "value": 0.77, "unit": "nM"}
    ]}
  ]
}
